From patent US20250270216A1, “ANTI-INFECTIVE AGENTS” (UNIVERSITY OF DUNDEE, priority 2022, published 2025)

Columns and labels:
[1] = tested on: Hep G2 (Human hepatocyte carcinoma); test: In vitro inhibition of HepG2 cells (cytotoxicity); type: cell-based; conditions: read-out: Hs HepG2 PEC50 (converted)
Excerpt: Assay Method for Measurement of In Vitro Inhibition of HepG2 Cells (Cytotoxicity)
These experiments were run in accordance with the method of Mersch-Sundermann V et. al. Toxicology 2004, 198:329-340

[2] = target: Cryptosporidium parvum lysyl t-RNA synthetase (Cp KRS) (Cryptosporidium parvum, UniProt Q5CR27); test: In vitro inhibition of Cryptosporidium lysyl tRNA synthetase (KRS), Biomol green phosphate detection; type: biochemical; conditions: 300 nM CpKRS, 500 μM ATP, 1.2 mM L-Lysine, 8 h room temperature; read-out: C. parvum KRS pIC50 (converted)
Excerpt: The protein expression and purification method for recombinant CpKRS was described in Baragana et aL, PNAS, 2019, 116 (4), 7015-7020 and will be summarised below.
The C. parvum KRS had 45 residues removed at the N-terminus. All amplicons were cloned into the pAVA0421 expression vector using the ligation independent cloning (LIC) method. Recombinant plasmids were transformed into Rosetta BL21(DE3) competent cells and plated on LB agar plates with ampicillin, carbenicillin, and chloramphenicol selection. Clones were expressed using previously reported autoinduction methods and scaled to 2-litre cultures in a shake flasks. Cell pellets were harvested and lysed with 100 mM HEPES/150 mM NaCl/5% Glycerol/20 mM imidazole/0.5 mM TCEP pH 7.5/DNase/Complete inhibitor tablets) using a Cell Disrupter (Constant Systems) at 30 KPSI and centrifuged at 40,000 g for 20 min remove cell debris. The supernatant was loaded onto a 5 ml HiTrap Ni HP column that had been equilibrated with Buffer A (100 mM HEPES/150 mM NaCl/5% Glycerol/20 mM imidazole/0.5 mM TCEP pH 7.5) at 5 ml/min using an AKTA Pure system. Once loaded the column was washed with 10 column volumes of buffer A. A 5% step of Buffer B (100 mM HEPES/150 mM NaCl/5% Glycerol/500 mM imidazole/0.5 mM TCEP pH 7.5) was then used to wash off His-rich contaminating proteins. A linear gradient of 5-50% B was used to elute the protein. Approximately 287 mg of protein was present in the fractions containing the CpKRS protein. The sample was then concentrated to approximately 30 ml, passed through a 0.2 μm filter, before loading onto a XK26/60 Superdex 200 column using an AKTA Pure system at 4° C. at 2 ml/min 10 ml at a time. The eluted protein was pooled then frozen at −80° C. The concentration of the protein was 1.3 mg/ml. Sometimes the protein was cleaved with PreScission protease overnight, a second Ni column performed in flow through mode to removed uncleaved protein. GST beads were then added to remove the PreScission Protease. The protein was then gel filtered as descripted above.
Assay Method for Measurement of In Vitro Inhibition of Cryptosporidium lysyl tRNA Synthetase (KRS)
Potency of compounds was determined in 10 points dose-response inhibition curves. Compounds were transferred into 384-well clear bottom plates (Greiner Bio-One, 781101) using an Echo 550 acoustic dispenser (Labcyte). Using an automatic liquid dispenser, 50 μL reaction mixes were prepared by adding 25 μL of substrate mix into all wells followed by the addition of 25 μL enzyme mix into compounds and no inhibition control wells (final reaction: 100 mM HEPES, pH 7.4, 20 mM MgCl2, 1 mM DTT, 500 μM ATP, 1.2 mM L-Lysine, 300 nM CpKRS and 0.5 U/mL Pyrophosphatase). Complete inhibition control reactions were performed in the absence of enzyme and the plates were incubated at room temperature for 8 h. Reactions were stopped by the addition of Biomol green (50 μL: Enzo Life Sciences) with the amount of free phosphate detected by measuring absorbance (650 nm) after 20 min further incubation (BMG Pherastar plate reader). Counter screen assays to eliminate direct inhibition of pyrophosphatase were performed using 0.5 U/mL pyrophosphatase and 3 μM pyrophosphate as substrate in the same assay buffer (100 mM HEPES, pH 7.4, 20 mM MgCl2, 1 mM DTT) for 8 hours at room temperature. Biomol green was added and incubated for 20 min before detection as above. Samples were run in duplicate and data was processed and analysed using ActivityBase (IDBS).

Cryptosporidium parvum = test: In vitro inhibition of Cryptosporidium (method of Bessoff et al.); type: cell-based; conditions: read-out: C. parvum PEC50 (converted)
Excerpt: Assay Method for Measurement of In Vitro Inhibition of Cryptosporidium
These experiments were run in accordance with the method of Besssoff et. al. Antimicrob. Agents Chemother. 2013, 57:1804-1814. Results from these experiments are provided in the Experimental Results hereinafter.

Sequence of Cryptosporidium parvum lysyl t-RNA synthetase (Cp KRS) (Q5CR27 entry or part of it): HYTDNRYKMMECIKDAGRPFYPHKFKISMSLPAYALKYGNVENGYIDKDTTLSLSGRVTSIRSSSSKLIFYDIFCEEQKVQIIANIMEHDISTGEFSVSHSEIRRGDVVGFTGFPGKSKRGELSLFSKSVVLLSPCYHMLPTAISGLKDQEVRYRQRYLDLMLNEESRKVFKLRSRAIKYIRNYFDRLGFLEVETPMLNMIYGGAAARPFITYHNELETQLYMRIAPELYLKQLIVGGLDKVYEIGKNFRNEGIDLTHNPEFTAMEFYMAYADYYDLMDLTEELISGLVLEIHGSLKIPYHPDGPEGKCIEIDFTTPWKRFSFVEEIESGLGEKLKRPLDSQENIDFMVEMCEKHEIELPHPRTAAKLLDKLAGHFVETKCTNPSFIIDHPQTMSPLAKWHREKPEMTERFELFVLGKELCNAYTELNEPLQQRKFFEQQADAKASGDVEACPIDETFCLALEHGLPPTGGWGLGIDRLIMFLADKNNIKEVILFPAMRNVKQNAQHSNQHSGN

| IC50 [2] [nM] | EC50 (Cryptosporidium parvum) [nM] | SMILES | EC50 [1] [nM] |
| --- | --- | --- | --- |
| 1000 | 25.1 | Nc1nc2c(c(C(F)F)n1)C(=O)N(C[C@@H]1CCC[C@H](C(F)(F)F)C1)C2 [Compound 3, 2-amino-4-(difluoromethyl)-6-(((1R,3S)-3-(trifluoromethyl)cyclohexyl)methyl)-6,7-dihydro-5H-pyrrolo[3,4-d]pyrimidin-5-one] | 25100 |
| 2510 | 158 | Nc1nc2c(c(C(F)(F)F)n1)C(=O)N(CC1CCCC3(CC3)C1)C2 (racemic) [Compound 4, 2-amino-6-(spiro[2.5]octan-5-ylmethyl)-4-(trifluoromethyl)-6,7-dihydro-5H-pyrrolo[3,4-d]pyrimidin-5-one] | 20000 |
| 794 | 31.6 | Nc1nc2c(c(C(F)(F)F)n1)C(=O)N(C[C@@H]1CCC[C@H](C(F)(F)F)C1)C2 [Compound 1, 2-amino-4-(trifluoromethyl)-6-(((1R,3S)-3-(trifluoromethyl)cyclohexyl)methyl)-6,7-dihydro-5H-pyrrolo[3,4-d]pyrimidin-5-one] | 25100 |
| 794 | 20 | Cc1nc(N)nc2c1C(=O)N(C[C@@H]1CCC[C@H](C(F)(F)F)C1)C2 [Compound 2, 2-amino-4-methyl-6-(((1R,3S)-3-(trifluoromethyl)cyclohexyl)methyl)-6,7-dihydro-5H-pyrrolo[3,4-d]pyrimidin-5-one] | 12600 |
